In patent publication US7790781B2 (priority 2005, dated 2010) one finds solubility, pKa and Water solubility data, which are given here for two molecules.

As a reminder, the solubility is how much of the substance goes into solution per volume. One may read the pKa as the pH at which an ionisable group is half protonated. Read a high pKa as a weaker acid or stronger base.

Data set [1] is described as follows: Polyether solubility of acidic compound (20° C.). As to conditions: organic solvent or mixture.
Data set [2] in a line: pKa of acidic compound in water. From the text: If polyfunctional acids are used, it is sufficient for at least one of the pKa values, preferably the pKa1 of the polyfunctional acid used, to lie within the aforementioned ranges.
Data set [3] in a line: Water solubility of acidic compound at 20° C. The source says: This object is achieved pursuant to the invention by a condensation-crosslinkable dental material having a composition containing at least one alkoxysilyl-functional and/or hydroxysilyl-functional polyether a), at least one catalyst b), and optionally water c), with the at least one catalyst b) being selected from the group consisting of bases, salts, and any combinations thereof.

As for `O=C1CC(=O)NC(=O)N1` [barbituric acid], the solubility in data set [1] was not above 2 mg/mL; in data set [3] (20 °C, water), 142 mg/mL. For the same molecule, the pKa in data set [2] stood at 4.01.

`Cc1ccc(S(=O)(=O)O)cc1` [p-toluenesulfonic acid]: the Water solubility entry in data set [3] is on record as “about 750 g/l”.
